Tests used:
[1] = test system: S. aureus mastitis (Newbould 305); assay: r-BoIL-2 formulated in poloxamer 407 NF as a therapeutic for S. aureus mastitis (Example 6); type: in vivo, Holstein-Fresian dairy cattle
Description: This experiment compares r-BoIL-2 formulated in poloxamer 407 NF, against CEFA-LAK® (cephapirin in a commercial formulation), Na cephapirin (in PBS) and r-BoIL-2 in combination with Na cephapirin (in PBS) as potential therapeutics for S. aureus mastitis. The study employs the following materials: recombinant bovine interleukin-2 (r-BOIL-2, Immunex Corporation, Seattle, Wash.); CEFA-LAK® (200 mg cephapirin as cephapirin sodium in a commercially packaged dose, Bristol-Meyers, Evansville, Ind.); 200 mg Na cephapirin dissolved in 10.0 mL sterile saline; PLURONIC® ACID F127 (poloxamer 407 NF, BASF Corporation, Parsippany, N.J.).
The treatment of Holstein-Fresian dairy cattle is run over three days. There are four treatment groups as follows:
Treatment 1=2 infusions consisting of 200 mg cephapirin (as CEFA-LAK®),at 0 and 12 hours.
Treatment 2=3 infusions consisting of 10 mg r-BoIL-2/poloxamer 407 NF at 0, 24 and 48 hours.
Treatment 3=3 infusions consisting of 3.3 mg r-BoIL-2 in 10 mL PBS at 0, 24 and 48 hours, followed by 2 infusions of 200 mg Na cephapirin in 10 mL PBS at 0 and 12 hours.
Treatment 4=2 infusions consisting of 200 mg Na cephapirin in 10 mL PBS at 0 and 12 hours.
All mammary glands to be infused have been infected with S. aureus (Newbould 305). Infusions are made into the teat cistern of a milked out mammary gland after the prescribed milking. […]

[2] = test system: S. aureus; assay: Potentiation of bacteriostatic activity of lysostaphin by vehicles (checkered analysis); type: cell-based, Staphylococcus aureus; conditions: for Vehicle Conc. w/Max. Potentiation (%): with r-lysostaphin; for Character of potentiation: in words (footnotes, text); for Potentiation Index Compared to Lysostaphin: M.I.C. of r-lysostaphin in saline / M.I.C. in formulation with the vehicle
Source text: In order to identify the nontoxic formulations for mammalian use, toxicity is employed as a method to eliminate direct bactericidal effects on the S. aureus, as well as potential toxic effects on the target animal. Compounds are formulated with r-lysostaphin at concentrations below toxic effects and compared to the bacteriostatic activity of r-lysostaphin in a saline formulation. Some compounds potentiate r-lysostaphin bacteriostatic activity by as much as 300-1000 fold.
Several surfactants, detergents, oils, emollients and membrane solubilizers are chosen as representative of various classes of compounds which may affect protein activity. These vehicles are then evaluated for toxicity and potentiation of the bacteriostatic effects of r-lysostaphin on S. aureus according to the methods described in the foregoing examples. […] Secondly, the vehicles are subjected to the toxicity test on murine cells in vitro. Viable cells are evaluated by trypan blue exclusion and normalized to an untreated control. Thereafter, dairy cattle are infused through the teat canal with various concentrations of the vehicle to make a determination of the irritation potential after intramammary infusion as a measure of mammalian toxicity. Milk samples are collected after infusion of said vehicles and the somatic cell count is determined. The Stimulation Index equals the post-infusion SCC divided by the pre-infusion SCC. The vehicles showing minimal toxicity to S. aureus and mammalian cells in vitro and in vivo are subsequent candidates for evaluation in the in vivo potentiation trials.
Various vehicle combinations are tested in a standard checkered analysis which simultaneously varies the concentration of both parameters to examine the individual contribution of each. Vehicles are all compared to r-lysostaphin in a saline solution, i.e., the potentiation index. […] Glycerol and triacetin, while only potentiating the activity of r-lysostaphin 6-8 fold, is manifested by bactericidal effects (see above Table IV).

[3] = test system: Staphylococcus aureus mastitis (Newbould 305); assay: Efficacy of lysostaphin formulated in vehicles as intramammary infusion against Staphylococcus aureus mastitis; type: in vivo, bovine (dairy cows)
Source text: This experiment examines the ability of various lysostaphin formulations to eliminate S. aureus infections in the bovine mammary gland and compares the formulations with the testing of lysostaphin in a peanut oil-gel matrix, similar to that used in the commercial product CEFA-LAK®, which is used to treat mastitis in lactating dairy cows.
Lysostaphin is formulated in three vehicles: 15% w/v poloxamer 407 NF, 50% w/v glycerol or 10% w/v triacetin. Lysostaphin is also formulated in a peanut oil-gel matrix. These formulations are infused into the bovine mammary gland and the ability of these combinations to exact a biological response, either by curing the infection or by clearing the mammary gland temporarily of S. aureus, are assessed.
Recombinant lysostaphin is suspended in 10.0 mL of peanut oil vehicle or dissolved in 60.0 mL of appropriate sterile vehicle (sPBS) at a concentration of 10.0 mg/mL or 1.67 mg/mL, respectively. Each of 15% poloxamer 407 NF (PLURONIC® ACID F127, a polyoxyethylene-polyoxypropylene derivative, BASF Corporation, Parsippany, N.J.); 50% glycerol (Sigma Chemical Co., St. Louis, Mo.); and 10% triacetin (glyceryl triacetate, Sigma Chemical Co., St. Louis, Mo.) are prepared in sterile phosphate buffered saline.
Staphylococcus aureus infections of the mammary gland provide an excellent model system for evaluating therapeutic efficacy of a variety of pharmaceutical and biological agents for many infectious diseases of mammals. Therefore, experimental infections are established with S. aureus (strain Newbould 305). All mammary glands to be inoculated are free of pathogens and have individual quarter somatic cell counts (SCC) less than 200,000 cells/mL of milk. Inoculum is prepared from a four-hour culture grown in trypticase soy broth and diluted. Inoculations are made by infusion of 1.0 mL diluted culture containing 90 colony forming units of S. aureus (Newbould 305) into the teat cistern of a milked-out mammary quarter. Quarters which fail to establish an infection after six days from initial inoculation are reinfected.
Prepared in PBS is 50% glycerol and the solution is then sterile filtered (0.45μ). Poloxamer 407 NF is mixed overnight and prepared similarly. A 10% triacetin solution is prepared aseptically in sterile PBS. Appropriate amounts of lysostaphin is added so the final concentration is 1.67 mg/mL. All preparations are in a total volume of 60.0 mL and made the day of the infusion. All solutions are sterile filtered through a 0.45μ filter.
Duration of treatment: 3 consecutive PM milkings
Quarters are randomly assigned to one of six treatment groups. All quarters are infused with the appropriate vehicle (60.0 mL) with or without lysostaphin over three consecutive PM milkings. […]

[4] = test system: S. aureus; assay: Potentiation of lysostaphin bactericidal activity (minimum bactericidal concentration assay, survival of S. aureus); type: cell-based, Staphylococcus aureus; conditions: 18 h
Description: Preparation of 50% glycerol and 15% poloxamer 407 NF plus lysostaphin is as follows: The lysostaphin stock of 2.5 mg/mL is thawed and filtered through a 0.22μ filter. [formula]
In a similar fashion, triacetin solutions are also prepared.
Mueller-Hinton Broth containing lysostaphin is prepared as above. Penicillin in Mueller-Hinton Broth is prepared to serve as a control. Starting with a frozen 2.5 mg/mL stock solution the penicillin is diluted as follows: 400 μl of 2.5 mg/mL is placed in 600 μl of Mueller-Hinton Broth to yield a 1000 μg/mL solution. Added to 3744 μl of Mueller-Hinton Broth is 256 μl of the 1000 μg/mL solution to yield a 64 μg/mL solution.
Placed in sterile tubes are 2 mL of the vehicle and lysostaphin; Mueller-Hinton Broth plus lysostaphin; and Mueller-Hinton Broth plus penicillin. Serial two-fold dilutions are performed by hand using 1 mL of the appropriate vehicle as the diluent. Lysostaphin and penicillin dilutions range from 64 μg/mL to 0.25 μg/mL. All combinations are done in duplicate. The Staphylococcus aureus is grown for 5 hours in 5 mL of TSB and 0.1 mL is removed and placed in 9.9 mL of saline. Each tube is inoculated with 100 μl of the diluted culture. Plate counts are performed on the inoculum. All tubes are incubated for 18 hours at 37° C. with constant agitation. Following incubation, each dilution of lysostaphin in the vehicles or Mueller-Hinton Broth and penicillin in Mueller-Hinton Broth is diluted in phosphate buffered saline to 10^-2, 10^-4 and 10^-6.
Plated on a TSA with 10% sheep blood is 100 μl of the undilute and of each dilution. The plates are inverted and incubated for 18 hours. Following incubation, the number of colonies on each plate is counted.
The vehicles which inhibit the growth or are moderately bactericidal to S. aureus by themselves are unable to be evaluated using the MIC procedure. For these vehicles a minimum bactericidal concentration assay (MBC) is performed. This assay in conjunction with the previous MIC data distinguish bacteriostatic effects versus bactericidal effects of the vehicles. Various formulations are mixed with lysostaphin at a final concentration of 32 μg/mL. Ten, serial two- or four-fold dilutions of the lysostaphin are performed in the vehicle and each tube inoculated with a 2-6 x's 106 S. aureus CFU's (bacterial colony-forming units). Samples are removed after 18 hours and plated on blood agar plates.

[5] = Toxicosis following r-BoIL-2 and r-BoIL-1 formulated infusions; type: in vivo, dairy cattle; conditions: in words
Source text: Daily observations of dairy cattle are made for any signs of toxicosis following the beginning of treatment.

[6] = lysostaphin (or penicillin) 1 μg/mL
[7] = lysostaphin (or penicillin) 4 μg/mL

In the case of `CC(=O)OCC1=C(C(=O)O)N2C(=O)[C@@H](NC(=O)CSc3ccncc3)[C@H]2SC1` [Cephapirin], the “Response (%)” value ([1]; CEFA-LAK 200 mg x2, r-BoIL-2/F127 10 mg x3, r-BoIL-2 3.3 mg x3 + cephapirin 200 mg x2, cephapirin 200 mg x2, quarters culture negative at first sampling) is reported as 85% and the “Cure (%)” value ([1]; same doses, days eight to fifteen following final treatment) is reported as 23.1%.

In the case of `CCCCCCCCCC(=O)N(C)C[C@H](O)[C@@H](O)[C@H](O)[C@H](O)CO` [Decanoyl-n-methylglucamid], the “Vehicle Conc. w/Max. Potentiation (%)” value [2] is reported as 0.078%.

With `CCCCCCCCCCCCO[C@@H]1O[C@H](CO)[C@@H](O[C@H]2O[C@H](CO)[C@@H](O)[C@H](O)[C@H]2O)[C@H](O)[C@H]1O` [Dodecyl B-D-maltosid] the “Vehicle Conc. w/Max. Potentiation (%)” value [2] was 0.0024%.

For `OCC(O)CO` [Glycerol], the “% Cures” value ([3]; 100 mg lysostaphin infusions on three consecutive days) was 25%, the “Effect on potentiating the in vivo efficacy of lysostaphin” value ([3]; in words) was “Neither glycerol nor triacetin (both have a cure rate of 25%) has any significant effect” and the Character of potentiation [2] was “Potentiates the bactericidal activity of rlysostaphin”. The “Vehicle Conc. w/Max. Potentiation (%)” value [2] was 50.0%.

With `CCCCCCCC(=O)N(C)C[C@H](O)[C@@H](O)[C@H](O)[C@H](O)CO` [Octanoyl-n-methylglucamid] the “Vehicle Conc. w/Max. Potentiation (%)” value [2] was 0.31%.

In the case of `CC1(C)S[C@@H]2[C@H](NC(=O)Cc3ccccc3)C(=O)N2[C@H]1C(=O)O` [Penicillin, reference compound], the “Survival of S. aureus CFU (Log 10) in Vehicles” value (“Survival … (Log 10) in Vehicles” for short) ([4]; lysostaphin (or penicillin) 0.5 μg/mL) is reported as 4.2 CFU (Log 10), the “Killing of S. aureus (footnote class)” value [4, 6] is reported as “^3 (Greater than 99.99% killing of S. aureus)” and the “Survival … (Log 10) in Vehicles” value [4, 6] is reported as 2.5 CFU (Log 10). For the same molecule, the “Killing of S. aureus (footnote class)” value [4, 7] was “^3 (Greater than 99.99% killing of S. aureus)”, the “Survival … (Log 10) in Vehicles” value [4, 7] was 3.1 CFU (Log 10) and the “Survival … (Log 10) in Vehicles” value ([4]; lysostaphin (or penicillin) 8 μg/mL) was 0 CFU (Log 10). The “Killing of S. aureus (footnote class)” value ([4]; penicillin 0.5 μg/mL) was “^3 (Greater than 99.99% killing of S. aureus)”.

With `CC(O)CO` (stereo not drawn) [Propylene Glycol] the “Vehicle Conc. w/Max. Potentiation (%)” value [2] was 0.195%.

In the case of `CCCCCCCCCCCCOC1O[C@H](CO)[C@@H](O)[C@H](O)[C@H]1O` (stereo partly drawn) [n-Dodecylglucosid], the “Potentiation Index Compared to Lysostaphin” value [2] is reported as 1025.0, the Character of potentiation [2] is reported as “Potentiation is eliminated when diluted fourfold” and the “Vehicle Conc. w/Max. Potentiation (%)” value [2] is reported as 0.078%.

With `CCCCCCCCOC1O[C@H](CO)[C@@H](O)[C@H](O)[C@H]1O` (stereo partly drawn) [n-Octylglucosid] the “Potentiation Index Compared to Lysostaphin” value [2] was 1.0 and the “Vehicle Conc. w/Max. Potentiation (%)” value [2] was 0.039%.

B1: r-BoIL-2: recombinant bovine interleukin-2, Immunex Corporation, Seattle, Wash. (protein, UniProt P05016 21-155, looked up)
Interleukin-2: APTSSSTGNTMKEVKSLLLDLQLLLEKVKNPENLKLSRMHTFDFYVPKVNATELKHLKCLLEELKLLEEVLNLAPSKNLNPREIKDSMDNIKRIVLELQGSETRFTCEYDDATVNAVEFLNKWITFCQSIYSTMT
In the case of B1, the “Observable signs of toxicosis / adverse clinical signs” value ([5]; compared with PBS carrier) is reported as “A decrease of adverse clinical signs are observed” and the “Side effects compared with r-BoIL-2 in PBS” value ([5]; in polyoxypropylene-polyoxyethylene block copolymer) is reported as “substantially less detrimental to an animal than infusions of r-BoIL-2 in sterile phosphate buffered saline”.

Source: patent US5342612A, “Compositions for the treatment of mammalian diseases” (priority 1991, dated 1994)
